In patent US20250213608A1, “VANADYL SULFATE COMPOSITIONS AND METHODS OF USE THEREFOR FOR THE TREATEMENT AND PREVENTION OF AGING-RELATED DISEASES AND CANCER” (The University of Chicago, priority 2022, published 2025):
“Also recorded” adds a separate entry of the source.

Key:
[1] = tested on: human fibroblast HCA2 cells with senescence induced by Nutlin3a, RO3306 and BI2436; test: Second screen for senolytic effect in induced-senescent HCA2 cells; format: cell-based; conditions: senescent HCA2 cells versus control uninduced cells; FIG. 1B, 2B
Experimental: (§1) Experiments were conducted during development of embodiments herein to screen for diet-derived dietary substances, natural products, blood chemicals, etc. that provide senolytic activity with reduced “off-target” toxic side effects. A library of diet-derived blood chemicals was screened to identify compounds that selectively induce cell death in human fibroblast BJ cells with therapy-induced senescence by doxorubicin (FIG. 1A). The top candidates identified were tested in a second screen (FIG. 1B) using human fibroblast HCA2 cells with senescence induced by Nutlin3a (p53 activator), RO3306 (CDK1 inhibitor), and BI2436 (PLK1 inhibitor).
(§2) Experiments were conducted during development of embodiments herein to screen for natural products that provide senolytic activity. A library of diet-derived blood chemicals was screened to identify compounds that selectively induce cell death in human fibroblast BJ cells with therapy-induced senescence by doxorubicin (FIG. 1A). The top candidates identified were tested in a second screen (FIG. 1B) using human fibroblast HCA2 cells with senescence induced by Nutlin3a (p53 activator), RO3306 (CDK1 inhibitor), and BI2436 (PLK1 inhibitor). […] Temporal mechanistic studies of VS were also conducted (FIG. 8A-B).

aged mice = test: Aging-related phenotypes in aged mice after oral gavage; format: in vivo
Description: In some embodiments, provided herein is the administration of VS as a pharmaceutical or nutraceutical composition to treat or prevent pathogenic senescence-related diseases (e.g., liver and lung fibrosis, atherosclerosis, diabetes, osteoarthritis, etc.). In some embodiments, provided herein is the administration of VS as a pharmaceutical or nutraceutical composition to treat or prevent various diverse human cancers, alone or in combination with anti-cancer therapies that result in therapy-induced senescence.

type 2 diabetes = conditions: cited from earlier work
A549 xenograft = A549 xenograft model combined with senescence induction; format: in vivo; conditions: FIG. 6A-B
[2] = tested on: apolipoprotein E-deficient (ApoE-/-) mice; test: Atherosclerosis model in ApoE-/- mice; format: in vivo
Description: Atherosclerosis-prone apolipoprotein E-deficient (ApoE^−/−) mice were used that display poor lipoprotein clearance with subsequent accumulation of cholesterol ester-enriched particles in the blood, which promote the development of atherosclerotic plaques. Compared to wild type control mice with no disease (WT-ND), the ApoE−/− mice developed atherosclerosis-like disease with accumulation of cholesterol that was stained with Sudan IV showing orange-red color (FIG. 9A, left).

animal models = conditions: cited from earlier work
[3] = tested on: human fibroblast BJ cells with therapy-induced senescence by doxorubicin; test: Screen for senolytic effect in cells with therapy-induced senescence; format: cell-based; conditions: senescent BJ cells versus control uninduced cells; FIG. 1A, 2A
Experimental: as §1, §2

[4] = tested on: bleomycin-induced lung fibrosis; test: Bleomycin-induced lung fibrosis; format: in vivo; conditions: FIG. 4A-D
[5] = tested on: CCl4-induced liver fibrosis; test: CCl4-induced liver fibrosis; format: in vivo; conditions: FIG. 5A-D
senescent cells = test: Rescue of VS-induced cell death by NAC; format: cell-based; conditions: FIG. 7A-C
Experimental: as §2

[6] = aged mice, oral gavage, kidney tissues

For `O=S(=O)([O-])[O-].[O]=[V+2]` [VS, vanadyl sulfate], the “cell death in senescent HCA2 cells” value [1] was “selectively triggers cell death; also recorded: selectively induced cell death”, the “aging / senescent cells in vivo” value (aged mice; FIG. 3A-F) was “ameliorates aging by eliminating senescent cells” and the aging-related phenotypes (aged mice; aged mice, oral gavage) was “improved”. For the same compound, the serum urea levels (aged mice; aged mice, oral gavage) was “reducing”, the “gene expression level of CDK inhibitor p16INK4a” value (aged mice; [6]) was “reducing” and the “gene expression level of inflammatory cytokine IL-6” value (aged mice; [6]) was “reducing”. The “hepatic and muscle insulin sensitivity” value (type 2 diabetes) was “improve”, the tumor growth (A549 xenograft) was “suppresses tumor growth” and the “accumulation of cholesterol in atherosclerotic plaques” value ([2]; ApoE-/- mice, Sudan IV staining, quantitation, FIG. 9A) was “reduced”. The “overall total cholesterol level” value ([2]; ApoE-/- mice, FIG. 9B) was “reduced”, the “therapeutic efficacy in atherosclerosis model” value ([2]; FIG. 9A-B) was “provides therapeutic efficacy” and the hyperglycemia (animal models) was “reduce”. For the same compound, the insulin resistance (animal models) was “reduce”, the “cell death in senescent BJ cells” value [3] was “selectively triggers cell death; also recorded: selectively induced cell death” and the “therapeutic efficacy in bleomycin-induced lung fibrosis” value [4] was “shows therapeutic efficacy”. For the same compound, the “therapeutic efficacy in CCl4-induced liver fibrosis” value [5] was “shows therapeutic efficacy” and the “rescue of VS-induced cell death by NAC” value (senescent cells) was “can be rescued by NAC”.
